ChEMBL document CHEMBL4419178, “Yap1 inhibitors that target the interaction of yap1 with oct4” (2018)
Calls of active or inactive are those of the source. The rule behind the calls is not given here.

Legend:
[1] = target: Transcriptional coactivator YAP1 (Homo sapiens) (UniProt P46937); test: Inhibition of YAP1 in human NCI-H1650 cells assessed as suppression of fibronectin mRNA expression at 5 to 10 uM incubated for 72 hrs by RT-PCR method; type: cell-based
Homo sapiens [2] = species: Homo sapiens; test: Cytotoxicity in human WM1366 cells assessed as reduction in cell viability at 0.5 to 20 uM incubated for 72 hrs by MTT assay; type: functional, cell-based
NCI-H1650 [3] = test: Inhibition of self-renewal capacity in stem-like side-population cells of human NCI-H1650 cells assessed as reduction in number of spheres at 50 uM incubated for 10 days by sphere formation assay relative to control; type: functional; settings: NCI-H1650, 240 h
[4] = target: Transcriptional coactivator YAP1 (Homo sapiens) (UniProt P46937); test: Inhibition of YAP1 in human NCI-H1703 cells assessed as suppression of PD-L1 mRNA expression at 5 to 10 uM incubated for 72 hrs by RT-PCR method; type: cell-based
PC-9 = test: Cytotoxicity in gefitinib resistant human PC9 cells assessed as reduction in cell viability at 1 to 20 uM by MTT assay; type: functional, cell-based
Homo sapiens [5] = species: Homo sapiens; test: Cytotoxicity in human 92-1 cells assessed as reduction in cell viability at 0.5 to 20 uM incubated for 72 hrs by MTT assay; type: functional, cell-based
[6] = target: Transcriptional coactivator YAP1 (Homo sapiens) (UniProt P46937); test: Inhibition of YAP1 in human NCI-H1650 cells assessed as reduction in Sox2 protein expression at 50 uM by luciferase reporter gene assay; type: cell-based
HUVEC = test: Inhibition of angiogenic tubule formation in HUVEC at 1 to 5 uM incubated for 18 to 24 hrs; type: functional, cell-based; settings: Homo sapiens
[7] = target: Transcriptional coactivator YAP1 (Homo sapiens) (UniProt P46937); test: Inhibition of YAP1 (unknown origin) assessed as disruption in YAP1/OCT4 interaction at 50 uM by cell based assay
[8] = target: Transcriptional coactivator YAP1 (Homo sapiens) (UniProt P46937); test: Inhibition of YAP1 in human NCI-H1703 cells assessed as suppression of Sox2 mRNA expression at 5 to 10 uM incubated for 72 hrs by RT-PCR method; type: cell-based
[9] = target: Transcriptional coactivator YAP1 (Homo sapiens) (UniProt P46937); test: Inhibition of YAP1 in human NCI-H1650 cells assessed as suppression of HK2 mRNA expression at 5 to 10 uM incubated for 72 hrs by RT-PCR method; type: cell-based
[10] = target: Transcriptional coactivator YAP1 (Homo sapiens) (UniProt P46937); test: Inhibition of YAP1 in human NCI-H1650 cells assessed as suppression of PD-L1 mRNA expression at 5 to 10 uM incubated for 72 hrs by RT-PCR method; type: cell-based
NCI-H146 [11] = test: Effect on expression of Nanog mRNA expression in human NCI-H146 cells at 5 to 10 uM incubated for 72 hrs by RT-PCR method; type: cell-based; settings: nci-h146, 72 h
[12] = target: Transcriptional coactivator YAP1 (Homo sapiens) (UniProt P46937); test: Inhibition of YAP1 (unknown origin) assessed as disruption in YAP1/OCT4 interaction at 5 uM by ELISA relative to control
[13] = target: Transcriptional coactivator YAP1 (Homo sapiens) (UniProt P46937); test: Inhibition of YAP1 in human NCI-H146 cells assessed as suppression of Sox2 mRNA expression at 5 to 10 uM incubated for 72 hrs by RT-PCR method; type: cell-based
[14] = target: Transcriptional coactivator YAP1 (Homo sapiens) (UniProt P46937); test: Inhibition of YAP1 in human A549 cells assessed as disruption in YAP1/OCT4 interaction at 5 uM incubated for 72 hrs by immunoprecipitation-Westem blot assay; type: cell-based
NCI-H1650 [15] = test: Effect on expression of Oct4 mRNA expression in human NCI-H1650 cells at 5 to 10 uM incubated for 72 hrs by RT-PCR method; type: cell-based; settings: nci-h1650, 72 h
NCI-H146 [16] = test: Effect on expression of Oct4 mRNA expression in human NCI-H146 cells at 5 to 10 uM incubated for 72 hrs by RT-PCR method; type: cell-based; settings: nci-h146, 72 h
SK-MEL-5 = test: Cytotoxicity in human SK-MEL-5 cells assessed as reduction in cell viability at 0.5 to 20 uM incubated for 72 hrs by MTT assay; type: functional, cell-based
NCI-H1650 [17] = test: Cytotoxicity in human NCI-H1650 cells assessed as reduction in cell viability at 0.5 to 20 uM incubated for 72 hrs by MTT assay; type: functional, cell-based
NCI-H1703 [18] = test: Inhibition of YAP1/TEAD2 interaction in human NCI-H1703 cells assessed as suppression of CTGF mRNA expression at 5 to 10 uM incubated for 72 hrs by RT-PCR method; type: cell-based
[19] = target: Transcriptional coactivator YAP1 (Homo sapiens) (UniProt P46937); test: Inhibition of YAP1 in human NCI-H146 cells assessed as suppression of PDK2 mRNA expression at 5 to 10 uM incubated for 72 hrs by RT-PCR method; type: cell-based
[20] = target: Transcriptional coactivator YAP1 (Homo sapiens) (UniProt P46937); test: Inhibition of YAP1 in human NCI-H1703 cells assessed as suppression of fibronectin mRNA expression at 5 to 10 uM incubated for 72 hrs by RT-PCR method; type: cell-based
[21] = target: Transcriptional coactivator YAP1 (Homo sapiens) (UniProt P46937); test: Inhibition of YAP1 in human NCI-H146 cells assessed as suppression of HK2 mRNA expression at 5 to 10 uM incubated for 72 hrs by RT-PCR method; type: cell-based
NCI-H1703 [22] = test: Effect on expression of Nanog mRNA expression in human NCI-H1703 cells at 5 to 10 uM incubated for 72 hrs by RT-PCR method; type: cell-based; settings: nci-h1703, 72 h
[23] = target: Transcriptional coactivator YAP1 (Homo sapiens) (UniProt P46937); test: Inhibition of YAP1 in human NCI-H1650 cells assessed as suppression of vimentin mRNA expression at 5 to 10 uM incubated for 72 hrs by RT-PCR method; type: cell-based
NCI-H1650 [24] = test: Effect on expression of Nanog mRNA expression in human NCI-H1650 cells at 5 to 10 uM incubated for 72 hrs by RT-PCR method; type: cell-based; settings: nci-h1650, 72 h
NCI-H1703 [25] = test: Cytotoxicity in human NCI-H1703 cells assessed as reduction in cell viability at 0.5 to 20 uM incubated for 96 hrs by MTT assay; type: functional, cell-based
[26] = target: Transcriptional coactivator YAP1 (Homo sapiens) (UniProt P46937); test: Inhibition of YAP1 in human NCI-H1703 cells assessed as suppression of HK2 mRNA expression at 5 to 10 uM incubated for 72 hrs by RT-PCR method; type: cell-based
NCI-H1650 [27] = test: Inhibition of self-renewal capacity in cisplatin insensitive stem-like side-population cells of human NCI-H1650 cells assessed as reduction in number of spheres at 2 uM incubated for 5 days after 7 days cisplatin exposure by sphere formation assay; type: functional, cell-based
[28] = target: Transcriptional coactivator YAP1 (Homo sapiens) (UniProt P46937); test: Inhibition of YAP1 in human NCI-H1650 cells assessed as suppression of Sox2 mRNA expression at 5 to 10 uM incubated for 72 hrs by RT-PCR method; type: cell-based
NCI-H1975 = test: Cytotoxicity in gefitinib and erlotinib resistant human NCI-H1975 cells assessed as reduction in cell viability at 1 to 10 uM incubated for 72 hrs by MTT assay; type: functional, cell-based
A549 = test: Cytotoxicity in human A549 cells assessed as reduction in cell viability at 0.5 to 20 uM incubated for 72 hrs by MTT assay; type: functional, cell-based
NCI-H1650 [29] = test: Inhibition of YAP1/TEAD2 interaction in human NCI-H1650 cells assessed as suppression of CTGF mRNA expression at 5 to 10 uM incubated for 72 hrs by RT-PCR method; type: cell-based
[30] = target: Transcriptional coactivator YAP1 (Homo sapiens) (UniProt P46937); test: Inhibition of YAP1 in human NCI-H1650 cells assessed as disruption in YAP1/OCT4 interaction at 5 uM incubated for 72 hrs by immunoprecipitation-Westem blot assay; type: cell-based
[31] = target: Transcriptional coactivator YAP1 (Homo sapiens) (UniProt P46937); test: Inhibition of YAP1 in human NCI-H1703 cells assessed as suppression of vimentin mRNA expression at 5 to 10 uM incubated for 72 hrs by RT-PCR method; type: cell-based
[32] = target: Transcriptional coactivator YAP1 (Homo sapiens) (UniProt P46937); test: Inhibition of YAP1 in human NCI-H1650 cells assessed as suppression of PDK2 mRNA expression at 5 to 10 uM incubated for 72 hrs by RT-PCR method; type: cell-based
[33] = target: Transcriptional coactivator YAP1 (Homo sapiens) (UniProt P46937); test: Inhibition of YAP1 in human NCI-H1703 cells assessed as suppression of PDK2 mRNA expression at 5 to 10 uM incubated for 72 hrs by RT-PCR method; type: cell-based
NCI-H1703 [34] = test: Effect on expression of Oct4 mRNA expression in human NCI-H1703 cells at 5 to 10 uM incubated for 72 hrs by RT-PCR method; type: cell-based; settings: nci-h1703, 72 h
HCC827 = test: Cytotoxicity in erlotinib-resistant human HCC827 cells assessed as reduction in cell viability at 1 to 20 uM by MTT assay; type: functional, cell-based
NCI-H146 [35] = test: Inhibition of self-renewal capacity in methotrexate insensitive stem-like side-population cells of human NCI-H146 cells assessed as reduction in number of spheres at 2 uM incubated for 3 days after 7 days methotrexate exposure by sphere formation assay; type: functional
NCI-H226 = test: Cytotoxicity in human NCI-H226 cells assessed as reduction in cell viability at 0.5 to 20 uM incubated for 96 hrs by MTT assay; type: functional, cell-based

Sequence of Transcriptional coactivator YAP1 (Homo sapiens) (P46937 whole entry): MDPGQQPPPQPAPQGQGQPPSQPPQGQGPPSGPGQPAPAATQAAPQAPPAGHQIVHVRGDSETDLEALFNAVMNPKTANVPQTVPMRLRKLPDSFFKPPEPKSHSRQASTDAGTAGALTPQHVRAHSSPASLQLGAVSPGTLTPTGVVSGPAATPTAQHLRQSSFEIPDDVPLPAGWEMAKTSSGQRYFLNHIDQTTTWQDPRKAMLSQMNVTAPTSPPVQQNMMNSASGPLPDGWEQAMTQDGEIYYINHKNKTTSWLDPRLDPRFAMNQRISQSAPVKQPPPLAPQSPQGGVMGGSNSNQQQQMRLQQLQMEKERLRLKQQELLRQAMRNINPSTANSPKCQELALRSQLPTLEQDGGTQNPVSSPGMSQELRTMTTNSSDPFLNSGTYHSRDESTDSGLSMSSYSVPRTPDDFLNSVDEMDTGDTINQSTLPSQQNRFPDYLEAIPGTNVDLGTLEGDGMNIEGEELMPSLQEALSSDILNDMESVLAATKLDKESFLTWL

inhibition [1]: Active
inhibition [4]: Active
inhibition [6]: 85.3%
inhibition [7]: > 85%
inhibition [8]: Active
inhibition [9]: Active
inhibition [10]: Active
inhibition [12]: 95%
inhibition [13]: Active
inhibition [14]: Active
inhibition [19]: Active
inhibition [20]: Active
inhibition [21]: Active
inhibition [23]: Active
inhibition [26]: Active
inhibition [28]: Active
inhibition [30]: Active
inhibition [31]: Active
inhibition [32]: Active
inhibition [33]: Active
Compound: O=C(CC1CCN(C(=O)CCc2ccccc2)CC1)N[C@@H](Cc1ccc(OCc2ccccc2)cc1)C(=O)O
Activity (Homo sapiens [2]): Active
inhibition at 50 µM (NCI-H1650 [3]): 72.6%
Activity (PC-9): Active
Activity (Homo sapiens [5]): Active
inhibition (HUVEC): Active
Activity (NCI-H146 [11]): Non-Toxic
Activity (NCI-H1650 [15]): Non-Toxic
Activity (NCI-H146 [16]): Non-Toxic
Activity (SK-MEL-5): Active
Activity (NCI-H1650 [17]): Active
inhibition (NCI-H1703 [18]): inactive
Activity (NCI-H1703 [22]): Non-Toxic
Activity (NCI-H1650 [24]): Non-Toxic
Activity (NCI-H1703 [25]): Active
inhibition (NCI-H1650 [27]): Active
Activity (NCI-H1975): Active
Activity (A549): Active
inhibition (NCI-H1650 [29]): inactive
Activity (NCI-H1703 [34]): Non-Toxic
Activity (HCC827): Active
inhibition (NCI-H146 [35]): Active
Activity (NCI-H226): Active
